Paper PMC12155096 (International Journal of Molecular Sciences, 2025)
Read-outs that look alike come from different tables or passages of the source.

Columns and labels:
[1] = molecular target: CYP3A4 (Homo sapiens, UniProt P08684)
[2] = molecular target: T1, human CYP1A2 (Homo sapiens, UniProt P05177); test: biochemical; conditions: CYP1A2 IC50
T1 sequence (P05177 1-516): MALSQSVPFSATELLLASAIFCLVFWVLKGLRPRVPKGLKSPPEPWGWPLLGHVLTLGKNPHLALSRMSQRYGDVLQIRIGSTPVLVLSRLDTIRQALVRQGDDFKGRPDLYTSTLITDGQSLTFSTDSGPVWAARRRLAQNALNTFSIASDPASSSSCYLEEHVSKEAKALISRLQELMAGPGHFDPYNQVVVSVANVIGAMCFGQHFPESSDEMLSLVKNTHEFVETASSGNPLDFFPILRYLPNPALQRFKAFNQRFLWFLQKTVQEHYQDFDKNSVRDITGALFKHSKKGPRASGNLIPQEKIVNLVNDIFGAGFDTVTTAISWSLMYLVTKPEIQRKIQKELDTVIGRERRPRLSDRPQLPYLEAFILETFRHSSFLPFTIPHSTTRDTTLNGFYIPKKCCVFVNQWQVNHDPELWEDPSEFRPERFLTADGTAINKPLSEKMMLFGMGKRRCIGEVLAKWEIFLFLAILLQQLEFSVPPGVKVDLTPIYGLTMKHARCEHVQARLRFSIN

[3] = molecular target: Photinus pyralis (firefly) luciferase (Photinus pyralis, UniProt P08659); test: biochemical; format: biochemical
[4] = molecular target: T2, human CYP2C19 (Homo sapiens, UniProt P33261); test: biochemical; conditions: CYP2C19 IC50
[5] = molecular target: human CYP2D6 (Homo sapiens, UniProt P10635)
[6] = molecular target: T3, human CYP2C9 (Homo sapiens, UniProt P11712); test: biochemical; conditions: CYP2C9 IC50
[7] = molecular target: T2, human CYP2C19
[8] = molecular target: T3, human CYP2C9
[9] = molecular target: T1, human CYP1A2

T3 sequence (P11712 whole entry): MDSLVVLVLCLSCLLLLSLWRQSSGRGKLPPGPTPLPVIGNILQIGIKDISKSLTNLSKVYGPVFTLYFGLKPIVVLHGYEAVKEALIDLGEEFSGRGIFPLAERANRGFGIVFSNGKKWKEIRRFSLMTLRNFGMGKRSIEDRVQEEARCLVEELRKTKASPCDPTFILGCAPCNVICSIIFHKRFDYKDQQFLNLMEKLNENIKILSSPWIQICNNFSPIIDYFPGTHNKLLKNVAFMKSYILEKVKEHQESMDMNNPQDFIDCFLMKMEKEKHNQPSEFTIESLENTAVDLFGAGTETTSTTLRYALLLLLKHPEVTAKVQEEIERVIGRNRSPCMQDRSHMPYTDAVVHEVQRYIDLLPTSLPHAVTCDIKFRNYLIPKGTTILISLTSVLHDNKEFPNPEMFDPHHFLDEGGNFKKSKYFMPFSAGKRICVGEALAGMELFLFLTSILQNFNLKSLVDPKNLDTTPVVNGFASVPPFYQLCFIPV
T2 sequence (P33261 whole entry): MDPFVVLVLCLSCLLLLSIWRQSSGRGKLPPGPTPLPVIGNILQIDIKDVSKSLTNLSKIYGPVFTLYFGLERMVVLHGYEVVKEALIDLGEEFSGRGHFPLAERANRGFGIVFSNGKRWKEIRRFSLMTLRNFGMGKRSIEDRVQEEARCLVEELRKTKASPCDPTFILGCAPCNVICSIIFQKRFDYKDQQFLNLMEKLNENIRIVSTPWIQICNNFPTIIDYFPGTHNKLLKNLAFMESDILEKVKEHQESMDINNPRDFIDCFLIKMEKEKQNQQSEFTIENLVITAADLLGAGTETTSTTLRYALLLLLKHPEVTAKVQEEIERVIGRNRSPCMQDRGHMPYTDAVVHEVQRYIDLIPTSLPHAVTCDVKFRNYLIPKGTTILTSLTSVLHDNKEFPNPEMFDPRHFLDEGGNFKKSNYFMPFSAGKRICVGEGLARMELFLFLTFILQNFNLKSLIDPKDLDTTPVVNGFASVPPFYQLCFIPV
human CYP2D6, sequence (P10635 whole entry): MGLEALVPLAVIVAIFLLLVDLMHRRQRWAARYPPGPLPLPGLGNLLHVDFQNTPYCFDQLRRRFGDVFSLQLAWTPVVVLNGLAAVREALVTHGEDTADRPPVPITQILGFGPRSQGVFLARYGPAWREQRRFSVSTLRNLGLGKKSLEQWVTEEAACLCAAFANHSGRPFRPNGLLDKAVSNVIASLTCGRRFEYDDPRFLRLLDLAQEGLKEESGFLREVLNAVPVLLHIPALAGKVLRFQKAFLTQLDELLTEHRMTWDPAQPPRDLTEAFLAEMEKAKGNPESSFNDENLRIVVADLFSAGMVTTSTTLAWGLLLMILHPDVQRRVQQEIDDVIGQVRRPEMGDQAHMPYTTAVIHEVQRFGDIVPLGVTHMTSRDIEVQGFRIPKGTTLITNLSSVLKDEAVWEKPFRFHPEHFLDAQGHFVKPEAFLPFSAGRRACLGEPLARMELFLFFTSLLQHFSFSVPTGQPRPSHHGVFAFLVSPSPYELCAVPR
CYP3A4, sequence (P08684 whole entry): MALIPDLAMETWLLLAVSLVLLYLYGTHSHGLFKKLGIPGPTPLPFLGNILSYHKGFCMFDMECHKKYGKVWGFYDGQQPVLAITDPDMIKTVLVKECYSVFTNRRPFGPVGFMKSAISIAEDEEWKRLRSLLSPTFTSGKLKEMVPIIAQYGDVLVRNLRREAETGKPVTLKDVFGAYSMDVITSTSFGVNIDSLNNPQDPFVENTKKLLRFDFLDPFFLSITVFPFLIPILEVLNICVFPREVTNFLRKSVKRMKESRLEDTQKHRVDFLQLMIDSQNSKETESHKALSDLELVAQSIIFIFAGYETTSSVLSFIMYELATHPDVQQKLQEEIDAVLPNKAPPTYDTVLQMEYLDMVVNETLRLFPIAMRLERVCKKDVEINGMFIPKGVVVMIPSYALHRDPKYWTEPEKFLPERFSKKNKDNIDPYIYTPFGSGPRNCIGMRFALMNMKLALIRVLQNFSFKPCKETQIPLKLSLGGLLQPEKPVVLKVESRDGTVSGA
Photinus pyralis (firefly) luciferase, sequence (P08659 whole entry): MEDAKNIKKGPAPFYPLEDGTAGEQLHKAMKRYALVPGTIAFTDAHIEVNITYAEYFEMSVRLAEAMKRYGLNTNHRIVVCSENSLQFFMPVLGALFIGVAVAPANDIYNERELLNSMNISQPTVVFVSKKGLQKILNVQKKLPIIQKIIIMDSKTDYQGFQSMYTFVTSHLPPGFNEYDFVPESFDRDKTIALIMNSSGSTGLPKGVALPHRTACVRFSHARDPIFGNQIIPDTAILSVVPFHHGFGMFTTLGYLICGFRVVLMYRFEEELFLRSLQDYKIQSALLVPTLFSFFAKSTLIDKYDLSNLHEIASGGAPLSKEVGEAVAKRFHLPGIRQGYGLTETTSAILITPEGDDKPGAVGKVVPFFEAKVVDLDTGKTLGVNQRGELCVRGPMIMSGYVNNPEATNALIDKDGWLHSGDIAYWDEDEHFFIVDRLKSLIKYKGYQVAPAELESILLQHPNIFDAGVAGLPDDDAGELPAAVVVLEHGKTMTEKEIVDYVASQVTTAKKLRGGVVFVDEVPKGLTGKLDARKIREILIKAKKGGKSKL

Row | Compound | IC50 [1] | IC50 [9] | Luciferase IC50 (half-maximal inhibitory concentration) [3] | IC50 [7] | IC50 [5] | IC50 [8] | other results
1 | N#Cc1c2ccccc2cc2ccccc12 [9-Cyanoanthracene] | – | – | – | – | – | – | CYP3A4 IC50 [1]: Inactive; IC50 [2]: 0.22 µM; Luciferase IC50 [3]: Inactive; IC50 [4]: 16 µM; CYP2D6 IC50 [5]: Inactive; IC50 [6]: 6.16 µM
2 | c1ccc2c(c1)cc1ccc3cccc4ccc2c1c34 [Benzo(a)pyrene] | – | – | – | – | – | – | CYP3A4 IC50 [1]: Inactive; IC50 [2]: 0.3 µM; IC50 [3]: 16.4 µM; CYP2C19 IC50 [7]: Inactive; CYP2D6 IC50 [5]: Inactive; IC50 [6]: 23.4 µM
3 | Cn1ccc2cc3c(cc21)CCN3C(=O)Nc1cccnc1 [SB-206553] | 3.55 µM | 0.07 µM | – | – | – | – | CYP3A4 Efficacy (in parenthesis) [1]: 3.55 ± 0.64 (-82 ± 5) %; CYP2C9 IC50 (half-maximal inhibitory concentration) [8]: Inactive; Luciferase Efficacy (in parenthesis) [3]: 4.77 ± 1.70 (-73 ± 12) %; IC50 ([3]; read-out: Luciferase IC50 (half-maximal inhibitory concentration)): 4.77 µM; CYP1A2 Efficacy (in parenthesis) [9]: 0.07 ± 0.01 (-96 ± 6) %; CYP2C19 IC50 (half-maximal inhibitory concentration) [7]: Inactive; CYP2D6 IC50 (half-maximal inhibitory concentration) [5]: Inactive
4 | COc1cccc(CCc2ccccc2OCC(CN(C)C)OC(=O)CCC(=O)O)c1.Cl (stereo not drawn) [Sarpogrelate hydrochloride] | 6.72 µM | 16.2 µM | Inactive | 36.8 µM | – | – | CYP2C9 IC50 (half-maximal inhibitory concentration) [8]: Inactive; CYP2D6 Efficacy [5]: 0.42 ± 0.24 (-101 ± 2) %
5 | CC(C)CC(N(C)C)C1(c2ccc(Cl)cc2)CCC1.Cl (stereo not drawn) [Sibutramine hydrochloride] | 0.94 µM | – | Inactive | 8.47 µM | 4.24 µM | – | CYP3A4 Efficacy (in parenthesis) [1]: 0.94 ± 0.06 (-73 ± 3) %; CYP2C9 IC50 (half-maximal inhibitory concentration) [8]: Inactive; CYP1A2 IC50 (half-maximal inhibitory concentration) [9]: Inactive; CYP2C19 Efficacy (in parenthesis) [7]: 8.47 ± 1.44 (-127 ± 8) %; CYP2D6 Efficacy (in parenthesis) [5]: 4.24 ± 0.72 (-88 ± 6) %
6 | CCNc1nc(Cl)nc(NC(C)(C)C)n1 [Terbutylazine] | – | 10.8 µM | – | 31.2 µM | – | 0.62 µM | CYP3A4 IC50 [1]: Inactive; Luciferase IC50 [3]: Inactive; CYP2D6 IC50 [5]: Inactive
7 | CCN(CC)CCOc1ccc(Cc2ccccc2)cc1.Cl [Tesmilifene hydrochloride] | – | – | Inactive | 0.43 µM | 12.1 µM | – | AC50 [1]: 14.2 µM; CYP3A4 IC50 (half-maximal inhibitory concentration) [1]: 14.21 ± 3.96 (44 ± 9) µM; CYP2C9 IC50 (half-maximal inhibitory concentration) [8]: Inactive; CYP1A2 IC50 (half-maximal inhibitory concentration) [9]: Inactive; AC50 [7]: 0.43 µM; AC50 [5]: 12.1 µM
8 | CCCCCCCC[N+](CCCCCCCC)(CCCCCCCC)CCCCCCCC.[Br-] [Tetra-N-octylammonium bromide] | 1.87 µM | 73.8 µM | – | 16.4 µM | 0.4 µM | 34.2 µM | IC50 ([3]; read-out: Luciferase IC50): 89.2 µM
9 | CCCCCCCC[P+](CCCCCCCC)(CCCCCCCC)CCCCCCCC.[Br-] [Tetraoctylphosphonium bromide] | 1.73 µM | 57.7 µM | – | 14 µM | 0.75 µM | 23.2 µM | IC50 ([3]; read-out: Luciferase IC50): 65.5 µM
10 | N#Cc1c(-c2ccc(Cl)cc2)[nH]c(C(F)(F)F)c1Br [Tralopyril] | – | 0.33 µM | Inactive | 35 µM | 65.8 µM | 10.4 µM | CYP3A4 IC50 (half-maximal inhibitory concentration) [1]: Inactive
11 | C=CCOC(=O)c1ccc(C(=O)OCC=C)c(C(=O)OCC=C)c1 [Triallyl trimellitate] | 1.5 µM | 5.66 µM | Inactive | 0.15 µM | 46.2 µM | 0.33 µM | –
12 | CCCC[P+](C)(CCCC)CCCC.COS(=O)(=O)[O-] [Tributylmethylphosphonium methyl sulfate] | – | – | – | 63.3 µM | 0.24 µM | – | CYP3A4 IC50 [1]: Inactive; CYP2C9 IC50 [8]: Inactive; Luciferase IC50 [3]: Inactive; CYP1A2 IC50 [9]: Inactive
13 | CCC(COC(=O)c1cc(OC)c(OC)c(OC)c1)(c1ccccc1)N(C)C.O=C(O)/C=C\C(=O)O (stereo not drawn) [Trimebutine maleate] | 4.07 µM | – | Inactive | 30.3 µM | 0.67 µM | 15.5 µM | CYP1A2 IC50 (half-maximal inhibitory concentration) [9]: Inactive
14 | c1cc[c]([Bi]([c]2ccccc2)[c]2ccccc2)cc1 [Triphenylbismuth] | 2.36 µM | – | – | 0.17 µM | 31.9 µM | 0.73 µM | Luciferase IC50 [3]: Inactive; CYP1A2 IC50 [9]: Inactive
15 | [Cl][Bi]([Cl])([c]1ccccc1)([c]1ccccc1)[c]1ccccc1 [Triphenylbismuthine dichloride] | 15 µM | 17.2 µM | – | 0.28 µM | 7.15 µM | 0.88 µM | IC50 ([3]; read-out: Luciferase IC50): 13.2 µM
16 | CC(=O)[O][Sn]([c]1ccccc1)([c]1ccccc1)[c]1ccccc1 [Triphenyltin acetate] | 8.45 µM | 47.5 µM | – | 4.84 µM | 0.81 µM | 1.36 µM | IC50 ([3]; read-out: Luciferase IC50): 3.81 µM
17 | Cl.FC(F)(F)c1cccc(C2=CCN(CCc3ccc4ccccc4c3)CC2)c1 [Xaliproden hydrochloride] | – | 28.6 µM | Inactive | – | 0.28 µM | – | AC50 [1]: 19.8 µM; CYP3A4 IC50 (half-maximal inhibitory concentration) [1]: 19.77 ± 4.14 (120 ± 18) µM; CYP2C9 Efficacy [8]: 22.52 ± 6.28 (29 ± 5) %; CYP2C9 IC50 (half-maximal inhibitory concentration) [8]: 22.52 ± 6.28 (29 ± 5) µM; CYP1A2 Efficacy [9]: 28.62 ± 14.29 (-37 ± 3) %; CYP2C19 IC50 (half-maximal inhibitory concentration) [7]: Inactive; CYP2D6 Efficacy [5]: 0.28 ± 0.18 (-100 ± 3) %
18 | C[C@H]1CCC[C@H](O)CCCCCc2cc(O)cc(O)c2C(=O)O1 [Zearalanol] | 1 µM | 33.4 µM | Inactive | 19.5 µM | 57 µM | 27.3 µM | –
19 | Cimicifugoside | 0.89 µM | – | Inactive | – | – | 41.1 µM | CYP1A2 IC50 (half-maximal inhibitory concentration) [9]: Inactive; CYP2C19 IC50 (half-maximal inhibitory concentration) [7]: Inactive; CYP2D6 IC50 (half-maximal inhibitory concentration) [5]: Inactive
20 | GW473178E methyl benzene sulphonic acid | 0.8 µM | – | Inactive | 46.9 µM | 23.1 µM | 5.86 µM | CYP1A2 IC50 (half-maximal inhibitory concentration) [9]: Inactive
21 | Pentaerythritol allyl ether | 13 µM | 23.6 µM | Inactive | 0.83 µM | – | 5.98 µM | CYP2D6 IC50 (half-maximal inhibitory concentration) [5]: Inactive
22 | Trimethylolpropane ethoxylate triacrylate | 0.9 µM | 54.5 µM | Inactive | 20.5 µM | 68.9 µM | 22.4 µM | CYP3A4 Efficacy (in parenthesis) [1]: 0.9 ± 0.43 (-82 ± 18) %; CYP2C9 Efficacy (in parenthesis) [8]: 22.42 ± 6.63 (-90 ± 14) %; CYP1A2 Efficacy (in parenthesis) [9]: 54.51 ± 3.69 (-43 ± 8) %; CYP2C19 Efficacy (in parenthesis) [7]: 20.46 ± 7.7 (-131 ± 32) %; CYP2D6 Efficacy (in parenthesis) [5]: 68.92 ± 8.79 (-43 ± 5) %
